# In US20230250096A1, “SUBSTITUTED PHENYL-1H-PYRROLO[2,3-c] PYRIDINE DERIVATIVES” (Janssen Pharmaceutica NV, priority 2021, published 2023):
# Tested on: OCI-AML3 cells
# Test: Proliferation assay (spheroid confluence, 8 days), OCI-AML3
# Type: cell-based, human
# Details: Homo sapiens, OCI-AML-3, OCI-AML3; read-out: spheroid assay_OCI-AML3 IC50
# Procedure: The anti-proliferative effect of menin/MLL protein/protein interaction inhibitor test compounds was assessed in human leukemia cell lines. The cell line MOLM14 harbors a MLL translocation and expresses the MLL fusion protein MLL-AF9, respectively, as well as the wildtype protein from the second allele. OCI-AML3 cells that carry the NPM1c gene mutation were also tested. […] KO-52 was used as a control cell line containing two MLL (KMT2A) wildtype alleles in order to exclude compounds that display general cytotoxic effects.
# MOLM14 cells were cultured in RPMI-1640 (Sigma Aldrich) supplemented with 10% heat-inactivated fetal bovine serum (HyClone), 2 mM L-glutamine (Sigma Aldrich) and 50 μg/ml gentamycin (Gibco). KO-52 and OCI-AML3 cell lines were propagated in alpha-MEM (Sigma Aldrich) supplemented with 20% heat-inactivated fetal bovine serum (HyClone), 2 mM L-glutamine (Sigma Aldrich) and 50 μg/ml gentamycin (Gibco).
# In order to assess the anti-proliferative effects, 200 MOLM14 cells, 200 OCI-AML3 cells or 300 KO-52 cells were seeded in 200 μl media per well in 96-well round bottom, ultra-low attachment plates (Costar, catalogue number 7007). Cell seeding numbers were chosen based on growth curves to ensure linear growth throughout the experiment. Test compounds were added at different concentrations and the DMSO content was normalized to 0.3%. Cells were incubated for 8 days at 37° C. and 5% CO2. Spheroid like growth was measured in real-time by live-cell imaging (IncuCyteZOOM, Essenbio, 4×objective) acquiring images at day 8. Confluence (%) as a measure of spheroid size was determined using an integrated analysis tool.
# In order to determine the effect of the test compounds over time, the confluence in each well as a measure of spheroid size, was calculated. Confluence of the highest dose of a reference compound was used as baseline for the LC (Low control) and the confluence of DMSO treated cells was used as 0% cytotoxicity (High Control, HC).
# Absolute IC50 values were calculated as percent change in confluence as follows:
# LC=Low Control: cells treated with e.g. 1 μM of the cytotoxic agent staurosporin, or e.g. cells treated with a high concentration of an alternative reference compound
# HC=High Control: Mean confluence (%) (DMSO treated cells)
# % Effect=100−(100*(Sample−LC)/(HC−LC))
# GraphPad Prism (version 7.00) was used to calculate the IC50. Dose-response equation was used for the plot of % Effect vs Log10 compound concentration with a variable slope and fixing the maximum to 100% and the minimum to 0%.
row,SMILES,IC50
1,"CN=S(=O)(c1cc(F)ccc1-n1cc(CC2CCN(CC3CCOCC3)C2)c2c(C)cncc21)C(C)C (single isomer, unassigned) [Compound 77b]",128 nM
2,"CC(=O)N1CCC(N2CC[C@H](Cc3cn(-c4ccc(F)cc4C(=O)N(C)C(C)C)c4cncc(C)c34)C2)CC1 (single isomer, unassigned) [Compound 81]",100 nM
3,"COCC(=O)N1CCC(CN2CC[C@@H](Cc3cn(-c4ccc(F)cc4C(=O)N(C)C(C)C)c4cncc(C)c34)C2)CC1 (single isomer, unassigned) [Compound 136]",54 nM
4,"Cc1cncc2c1c(C[C@@H]1CCN([C@H](CO)C3CCCOC3)C1)cn2-c1ccc(F)cc1C(=O)N(C)C(C)C (single isomer, unassigned) [Compound 198b]",156 nM
5,"Cc1cncc2c1c(C[C@@H]1CCN(C[C@@H]3CCNC(=O)CC3)C1)cn2-c1ccc(F)cc1C(=O)N1[C@H](C)CC[C@H]1C (single isomer, unassigned) [Compound 352b]",263 nM
6,CC(=O)N1CCC(C)(CN2CC(Cc3cn(-c4ccc(F)cc4C(=O)N(C)C(C)C)c4cncc(C)c34)C2)CC1 [Compound 84],120 nM
7,Cc1cncc2c1c(C[C@@H]1CCN(CC3CCN(C(=O)C(C)C)CC3)C1)cn2-c1ccc(F)cc1C(=O)N1CCC[C@H]1CO [Compound 328],52 nM

# The remaining lines, values ahead:
row,IC50,SMILES
1,22 nM,"Cc1cncc2c1c(CC1CCN(CC3CCN(C(=O)[C@@H](C)O)CC3)C1)cn2-c1ccc(F)cc1C(=O)N(C)C(C)C (single isomer, unassigned) [Compound 85]"
2,23 nM,"Cc1cncc2c1c(CC1CCN(CC3CCN(C(=O)[C@H](C)O)CC3)C1)cn2-c1ccc(F)cc1C(=O)N(C)C(C)C (single isomer, unassigned) [Compound 86]"
3,9 nM,"CC(=O)N1CCC(C(C)N2CCC(Cc3cn(-c4ccc(F)cc4C(=O)N(C)C(C)C)c4cncc(C)c34)C2)CC1 (single isomer, unassigned) [Compound 116a]"
4,12 nM,"Cc1cncc2c1c(CC1CCN(CC3CCN(C(=O)C(C)(C)O)CC3)C1)cn2-c1ccc(F)cc1C(=O)N(C)C(C)C (single isomer, unassigned) [Compound 125]"
5,23 nM,"CC(=O)N1CCC(N2CC[C@H](Cc3cn(-c4ccc(F)cc4C(=O)N(C)C(C)C)c4cncc(C)c34)C2)C(C)C1 (single isomer, unassigned) [Compound 137a]"
6,12 nM,"CNC(=O)[C@H]1CC[C@H](CN2CC([C@H](C)c3cn(-c4ccc(F)cc4C(=O)N(C)C(C)C)c4cncc(C)c34)C2)CC1 (single isomer, unassigned) [Compound 164b]"
7,15 nM,"Cc1cncc2c1c(C[C@@H]1CCN([C@@H](CO)C3CCCOC3)C1)cn2-c1ccc(F)cc1C(=O)N(C)C(C)C (single isomer, unassigned) [Compound 198a]"
8,11 nM,"Cc1cncc2c1c(C[C@@H]1CCN(C[C@H]3CCNC(=O)CC3)C1)cn2-c1ccc(F)cc1C(=O)N1[C@H](C)CC[C@H]1C (single isomer, unassigned) [Compound 352a]"
9,35 nM,CC(=O)NC1CCC(N2CC[C@@H](Cc3cn(-c4ccc(F)cc4C(=O)N(C)C(C)C)c4cncc(C)c34)C2)CC1 (some centres unmarked) [Compound 201]
10,11 nM,CC(=O)N1CCC(CN2CCC(Cc3cn(-c4ccc(F)cc4C(=O)N(C)C(C)C)c4cncc(C)c34)C2C)CC1 (centres unmarked) [Compound 228]

# Same assay, conditions: OCI-AML3; read-out: spheroid assay_OCI-AML3 IC50
row,IC50,SMILES
1,26 nM,"Cc1cncc2c1c(CC1CCN(CC3CCC(=O)N(C)CC3)C1)cn2-c1ccc(F)cc1C(=O)N(C)C(C)C (single isomer, unassigned) [Compound 184a]"
2,138 nM,"Cc1cncc2c1c(CC1CCN(CC3CCC(=O)N(C)CC3)C1)cn2-c1ccc(F)cc1C(=O)N(C)C(C)C (single isomer, unassigned) [Compound 184b]"
3,11 nM,"Cc1cncc2c1c(C[C@@H]1CCN(CC3CCNC(=O)CC3)C1)cn2-c1ccc(F)cc1C(=O)N1CCC[C@H]1C (single isomer, unassigned) [Compound 353a]"
